The values below come from paper PMC8512562, “Semisynthetic Derivatives of Selected Amaryllidaceae Alkaloids as a New Class of Antimycobacterial Agents” (Molecules, 2021).

In general, IC50 refers to the concentration that gives 50% inhibition.

≈ marks a conversion by molar mass, not a printed value. Read-outs that look alike come from different tables or passages of the source.

Assay [1] deals with Mycobacterium aurum DSM 43999 (ATCC 23366). The assay can be described thus: Antimycobacterial screening (microdilution broth, resazurin) against M. aurum. Type of assay: cell-based. The following applies: Mycolicibacterium aurum, 72 h, read-out: MIC M. aurum. On the technique in general: Dilution methods test growth across graded concentrations, often in twofold steps.
For assay [2], the system named is Mycobacterium tuberculosis H37Ra. The experiment in a line: Antimycobacterial screening (microdilution broth, resazurin) against M. tuberculosis H37Ra. Type of assay: cell-based. To be noted: Mycobacterium tuberculosis.
In the next assay the test system is HepG2 cells. The assay can be described thus: cells. The format is cell-based, Human. The following applies: for IC50: Homo sapiens, HepG2, MTT, 24 h incubation.
The subject of assay [3] is Mycobacterium smegmatis DSM 43465 (ATCC 607). The assay can be described thus: Antimycobacterial screening (microdilution broth, resazurin) against M. smegmatis. Type of assay: cell-based. To be noted: Mycolicibacterium smegmatis, 48 h, read-out: MIC M. smegmatis.
For assay [4], the system named is M. tuberculosis H37Ra, M. aurum and M. smegmatis. The assay can be described thus: Antimycobacterial screening, MICs stated over all studied strains. The format is cell-based, Mycobacterium. To be noted: read-out: MICs against all studied strains.
Where [5] appears, read: H37RA, read-out: MIC Mtb H37Ra (µM).
Where [6] appears, read: M. tuberculosis H37Ra, resazurin added after 120 h, read-out: MIC Mtb H37Ra.
The mark [7] stands for this setting: range over M. tuberculosis H37Ra, M. aurum, M. smegmatis.

Take `COc1ccc2c3c1O[C@H]1C[C@@H](OC(=O)c4ccc(C(C)(C)C)cc4)C=C[C@@]31CCN(C)C2` [1h, 6-O-(4-tert-butylbenzoyl)galanthamine]: the MIC in assay [1] was 7.81 µg/mL (≈ 17.4 µM); in assay [2] (setting [5]), 6.9 µM; in assay [2] (setting [6]) it was 3.12 µg/mL; in assay [3], 7.81 µg/mL (≈ 17.4 µM); in assay [4] (setting [7]), 3.12 to 7.81 µg/mL. The “SI (selectivity index)” value with HepG2 cells is 2.43. For the same molecule, the IC50 in the assay with HepG2 cells was determined as 16.8 ± 4.2 µM.

For `CCCCc1ccc(C(=O)O[C@H]2C=C[C@@]34CCN(C)Cc5ccc(OC)c(c53)O[C@H]4C2)cc1` [1i, 6-O-(4-butylbenzoyl)galanthamine], the MIC in assay [1] is 1.98 µg/mL (≈ 4.42 µM); in assay [2] (setting [5]), 3.5 µM; in assay [2] (setting [6]), 1.56 µg/mL; in assay [3] it was 7.81 µg/mL (≈ 17.4 µM); in assay [4] (setting [7]), 1.56 to 7.81 µg/mL. In addition, the “SI (selectivity index)” value with HepG2 cells worked out at 4.20. For the same molecule, the IC50 in the assay on HepG2 cells amounted to 14.7 ± 1.6 µM.

Regarding `CCOc1cc(OCC)cc(C(=O)O[C@H]2C=C[C@@]34CCN(C)Cc5ccc(OC)c(c53)O[C@H]4C2)c1` [1p, 6-O-(3,5-diethoxybenzoyl)galanthamine], the MIC is 7.81 µg/mL (≈ 16.3 µM) in assay [1]; 7.6 µM in assay [2] (setting [5]); 3.91 µg/mL in assay [2] (setting [6]); 15.6 µg/mL (≈ 32.6 µM) in assay [3]; 3.91 to 15.6 µg/mL in assay [4] (setting [7]); 7.6 to 30.2 µM in assay [4] (range over the studied strains). In the assay on HepG2 cells, the “SI (selectivity index)” value came out at 2.64. Besides, the IC50 in the assay with HepG2 cells worked out at 20.1 ± 2.1 µM.

Consider `COc1ccc2c3c1O[C@H]1C[C@@H](OC(=O)c4cccc5ccccc45)C=C[C@@]31CCN(C)C2` [1q, 6-O-(1-naphthoyl)galanthamine], for which the MIC is 7.81 µg/mL (≈ 17.7 µM) in assay [1]; 13.1 µM in assay [2] (setting [5]); 6.25 µg/mL in assay [2] (setting [6]); 7.81 µg/mL (≈ 17.7 µM) in assay [3]; 6.25 to 7.81 µg/mL in assay [4] (setting [7]). For the same molecule, the “SI (selectivity index)” value with HepG2 cells came to 3.21. In addition, in the assay on HepG2 cells, half-maximal inhibition (IC50) was put at 42.1 ± 4.1 µM.

On to `COc1ccc2c3c1O[C@H]1C[C@@H](OC(=O)c4ccc5ccccc5c4)C=C[C@@]31CCN(C)C2` [1r, 6-O-(2-naphthoyl)galanthamine], for which the MIC in assay [1] was 3.91 µg/mL (≈ 8.86 µM); in assay [2] (setting [5]) it was 4.1 µM; in assay [2] (setting [6]) it was 1.98 µg/mL; in assay [3], 7.81 µg/mL (≈ 17.7 µM); in assay [4] (setting [7]), 1.98 to 7.81 µg/mL. The “SI (selectivity index)” value in the assay with HepG2 cells is 5.17. The same molecule registered an IC50 in the assay on HepG2 cells of 21.2 ± 3.8 µM.

For `COC1CC2C(=CC1OC(=O)c1ccc(C(C)(C)C)cc1)C1CN2Cc2cc3c(cc21)OCO3` (stereo not shown) [3c, 2-O-(4-tert-butylbenzoyl)-3-O-methylpancracine], the MIC in assay [1] was 7.81 µg/mL (≈ 16.9 µM); in assay [2] (setting [5]), 7.9 µM; in assay [2] (setting [6]), 3.91 µg/mL; in assay [3], 7.81 µg/mL (≈ 16.9 µM). Further, the “SI (selectivity index)” value with HepG2 cells was 3.08. For the same molecule, the IC50 with HepG2 cells amounted to 24.3 ± 2.4 µM.

In the case of `CCCCc1ccc(C(=O)OC2C=C3C4CN(Cc5cc6c(cc54)OCO6)C3CC2OC)cc1` (stereo not shown) [3d, 2-O-(4-butylbenzoyl)-3-O-methylpancracine], the MIC in assay [1] came to 7.81 µg/mL (≈ 16.9 µM); in assay [2] (setting [5]) it was 7.9 µM; in assay [2] (setting [6]) it was 3.91 µg/mL; in assay [3], 7.81 µg/mL (≈ 16.9 µM). In addition, the “SI (selectivity index)” value in the assay with HepG2 cells is 2.59. Further, 20.5 ± 0.7 µM corresponded to half-maximal inhibition in the assay on HepG2 cells (IC50).

With `CCOc1cc(OCC)cc(C(=O)OC2C=C3C4CN(Cc5cc6c(cc54)OCO6)C3CC2OC)c1` (stereo not shown) [3e, 2-O-(3,5-diethoxybenzoyl)-3-O-methylpancracine], the MIC was determined as 7.81 µg/mL (≈ 15.8 µM) in assay [1]; 3.91 µg/mL in assay [2] (H37RA, 120 h, read-out: MIC Mtb H37Ra); 7.8 µM in assay [2] (setting [5]); 15.6 µg/mL (≈ 31.7 µM) in assay [3]. In the assay on HepG2 cells, this molecule displayed an IC50 of 24.9 ± 1.7 µM.

For `COC1CC2C(=CC1OC(=O)c1cccc3ccccc13)C1CN2Cc2cc3c(cc21)OCO3` (stereo not shown) [3f, 2-O-(1-naphthoyl)-3-O-methylpancracine], the MIC was found to be 3.91 µg/mL (≈ 8.58 µM) in assay [1]; 7.9 µM in assay [2] (setting [5]); 3.91 µg/mL in assay [2] (setting [6]); 3.91 µg/mL (≈ 8.58 µM) in assay [3]; 3.91 µg/mL in assay [4] (setting [7]). Also, in the assay with HepG2 cells, the “SI (selectivity index)” value is 3.51. Besides, in the assay with HepG2 cells, the IC50 is 27.7 ± 4.7 µM.

As to `O=C(O[C@@H]1C=C[C@]23CCN(Cc4cc5c(cc42)OCO5)[C@H]3C1)c1cccc2ccccc12` [4a, 3-O-(1-naphthoyl)vittatine], the MIC in assay [1] is 3.91 µg/mL (≈ 9.19 µM); in assay [2] (setting [5]), 8.5 µM; in assay [2] (setting [6]), 3.91 µg/mL; in assay [3], 7.81 µg/mL (≈ 18.4 µM); in assay [4] (setting [7]) it was 3.91 to 7.81 µg/mL. The “SI (selectivity index)” value with HepG2 cells was 2.79. In the assay with HepG2 cells, this molecule yielded an IC50 of 23.7 ± 2.2 µM.

Consider `O=C(O[C@@H]1C=C[C@]23CCN(Cc4cc5c(cc42)OCO5)[C@H]3C1)c1ccc2ccccc2c1` [4b, 3-O-(2-naphthoyl)vittatine], for which the MIC was 3.91 µg/mL (≈ 9.19 µM) in assay [1]; 8.5 µM in assay [2] (setting [5]); 3.91 µg/mL in assay [2] (setting [6]); 7.81 µg/mL (≈ 18.4 µM) in assay [3]; 3.91 to 7.81 µg/mL in assay [4] (setting [7]). Also, in the assay on HepG2 cells, the “SI (selectivity index)” value is recorded as 2.17. In the assay on HepG2 cells, 18.5 ± 2 µM corresponded to half-maximal inhibition (IC50).

Turning to `COc1cc2c(cc1OC)[C@@]13C=C[C@@H](OC(=O)c4cc(C)cc(C)c4)C[C@@H]1N(CC3)C2` [5a, 3-O-(3,5-dimethylbenzoyl)maritidine], the MIC in assay [1] is 15.6 µg/mL (≈ 37.2 µM); in assay [2] (setting [5]), 8.6 µM; in assay [2] (setting [6]) it was 3.91 µg/mL; in assay [3] it was 15.6 µg/mL (≈ 37.2 µM); in assay [4] (setting [7]), 3.91 to 15.6 µg/mL. For the same molecule, the “SI (selectivity index)” value in the assay with HepG2 cells is 2.17. Also, inhibition with HepG2 cells was half-maximal at 18.7 ± 2.7 µM (IC50).

Regarding `COc1cc2c(cc1OC)[C@@]13C=C[C@@H](OC(=O)c4cccc5ccccc45)C[C@@H]1N(CC3)C2` [5b, 3-O-(1-naphthoyl)maritidine], the MIC is 7.81 µg/mL (≈ 17.7 µM) in assay [1]; 16.3 µM in assay [2] (setting [5]); 7.81 µg/mL in assay [2] (setting [6]); 15.6 µg/mL (≈ 35.4 µM) in assay [3]; 3.91 to 15.6 µg/mL in assay [4] (setting [7]). For the same molecule, the “SI (selectivity index)” value with HepG2 cells is 1.03. Besides, in the assay on HepG2 cells, the IC50 came out at 16.8 ± 7.1 µM.
